Measurements taken from patent publication US12357666B1, “Traditional Chinese herbal plant composition for improving symptoms of liver cancer patients and compatibility method thereof” (The First Hospital of China Medical University, priority 2024, dated 2025).

What was measured:
[1] = test system: Hep G2 cell line; test: Anti-tumor effect on tumor mice (subcutaneous Hep G2 model): tumor mass and tumor inhibition rate; format: in vivo, BALB/c nude mice; details: 28 d
Excerpt: The effect example explored the anti-tumor effect of the herbal plant compositions of Embodiment 1 and Comparative Examples 1 to 3 on tumor mice, and a specific process is as follows.
(§1) Totally 90 male BALB/c nude mice aged 5 weeks and with body weight of 19-22 g were used.
(§2) A total of 80 BALB/c nude mice were randomly selected and injected subcutaneously with Hep G2 cell line (5×10^6 cells) in the right armpits.
Dosing Criteria: the conventional gavage dose of mice was […]. Generally, it is also necessary to increase the dose of the original medicinal material of the herbal plant composition by 1 time and decrease the dose of the original medicinal material of the herbal plant composition by 1 time for gavage.
Low-dose Embodiment 1 Herbal Plant Composition Group: 10 mice, administered 5.27 g/kg Embodiment 1 herbal plant composition by gavage.
Medium-dose Embodiment 1 Herbal Plant Composition Group: 10 mice, administered 10.53 g/kg Embodiment 1 herbal plant composition by gavage.
High-dose Embodiment 1 Herbal Plant Composition Group: 10 mice, administered 21.06 g/kg Embodiment 1 herbal plant composition by gavage.
High-dose Comparative Example 1 Herbal Plant Composition Group: 10 mice, administered 21.06 g/kg Comparative Example 1 herbal plant composition by gavage.
High-dose Comparative Example 2 Herbal Plant Composition Group: 10 mice, administered 21.06 g/kg Comparative Example 2 herbal plant composition by gavage.
High-dose Comparative Example 3 Herbal Plant Composition Group: 10 mice, administered 21.06 g/kg Comparative Example 3 herbal plant composition by gavage.
Western medicine control group: 10 mice, administered 0.03 g/kg 5-fluorouracil by gavage.
After 28 d of continuous administration, the mice in each group were weighed and killed by cervical dissection. […] After washing, the tumors and the organs were dried with filter paper, weighed to obtain mass and recorded, and the tumor inhibition rate and organ index were calculated. […]

[2] = Organ index (lung, liver, heart, kidney) of tumor mice; format: in vivo, BALB/c nude mice; details: 28 d
Excerpt: as §1, §2
After 28 d of continuous administration, the mice in each group were weighed and killed by cervical dissection. Tumors and organs (lung, liver, heart and kidney) of the mice in each group were removed under sterile conditions, and washed with physiological saline. After washing, the tumors and the organs were dried with filter paper, weighed to obtain mass and recorded, and the tumor inhibition rate and organ index were calculated. The tumor mass of the mice was the average value of the tumor mass of each group of mice. Tumor inhibition rate=(tumor mass of mice in the model group-tumor mass of mice in the test group)/tumor mass of mice in the model group×100%. Organ index (mg/g)=organ mass (mg)/body mass (g) of mice.

O=c1[nH]cc(F)c(=O)[nH]1 [Western medicine control group, 5-fluorouracil]
Tumor mass ([1]; 0.03 g/kg by gavage, Hep G2 tumor nude mice): 0.27 g
tumor inhibition rates in mice (in words) ([1]; Table 2, gavage): relatively high
Inhibition rate (%) ([1]; tumor inhibition vs model group, 0.03 g/kg by gavage): 48.07%
Cardiac Index ([2]; 0.03 g/kg by gavage): 5.13 mg/g
Liver index ([2]; 0.03 g/kg by gavage): 42.78 mg/g
Lung index ([2]; 0.03 g/kg by gavage): 5.96 mg/g
Renal index ([2]; 0.03 g/kg by gavage): 17.69 mg/g
liver index, renal index, lung index and cardiac index compared to the model group (in words) ([2]; Table 3, gavage): no significant change
